Converted amounts (≈) assume the structure as drawn.
What was measured:
[1] = tested on: MDA-MB-231; assay: cells; conditions: Homo sapiens, MDA-MB-231, 72 h, read-out: INH
Description: Antitumor activity against human MDA-MB-231 cells assessed as inhibition of cell viability by measuring inhibition rate at 20 uM measured after 72 hrs by CCK-8 assay relative to control

[2] = Kinetic solubility of the compound in PBS buffer at pH 7.4 measured by HPLC analysis
[3] = tested on: MDA-MB-231; assay: cells; conditions: Homo sapiens, MDA-MB-231, 72 h, read-out: INH; remark: listed apart in the source
Description: Antitumor activity against human MDA-MB-231 cells assessed as inhibition of cell viability by measuring inhibition rate at 1 uM measured after 72 hrs by CCK-8 assay relative to control

[4] = tested on: MDA-MB-231; assay: cells; conditions: Homo sapiens, MDA-MB-231, 72 h
Description: Antitumor activity against human MDA-MB-231 cells assessed as inhibition of cell viability by measuring inhibition rate measured after 72 hrs by CCK-8 assay relative to control

[5] = target: T1, Eukaryotic elongation factor 2 kinase (Homo sapiens, UniProt O00418); assay: Binding affinity to eEF2K (unknown origin) assessed as dissociation constant measured by SPR analysis
T1 sequence (O00418 whole entry): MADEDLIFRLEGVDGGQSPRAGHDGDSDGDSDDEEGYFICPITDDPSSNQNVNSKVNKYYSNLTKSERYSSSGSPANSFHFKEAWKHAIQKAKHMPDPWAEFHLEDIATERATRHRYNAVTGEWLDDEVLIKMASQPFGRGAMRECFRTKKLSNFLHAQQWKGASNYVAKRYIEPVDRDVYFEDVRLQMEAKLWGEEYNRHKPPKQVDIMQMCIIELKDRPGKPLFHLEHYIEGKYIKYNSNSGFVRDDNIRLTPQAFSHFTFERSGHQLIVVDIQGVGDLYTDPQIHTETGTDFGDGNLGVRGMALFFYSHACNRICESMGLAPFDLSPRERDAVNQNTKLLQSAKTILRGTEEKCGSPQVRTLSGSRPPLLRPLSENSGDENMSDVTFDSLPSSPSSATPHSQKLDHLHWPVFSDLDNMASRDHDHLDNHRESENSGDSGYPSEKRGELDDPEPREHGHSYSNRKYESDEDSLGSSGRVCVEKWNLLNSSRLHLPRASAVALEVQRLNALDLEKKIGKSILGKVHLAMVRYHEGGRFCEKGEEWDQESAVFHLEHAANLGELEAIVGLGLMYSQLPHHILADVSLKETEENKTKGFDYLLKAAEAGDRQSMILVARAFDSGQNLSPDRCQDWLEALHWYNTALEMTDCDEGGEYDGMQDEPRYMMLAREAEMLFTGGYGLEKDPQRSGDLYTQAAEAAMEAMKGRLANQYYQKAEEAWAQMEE

[6] = In vivo antitumor activity against human MDA-MB-231 cells xenografted in female nude mouse assessed as tumor growth inhibition at 10 mg/kg, ip administered every other day relative to control; conditions: MDA-MB-231, read-out: TGI
[7] = tested on: MDA-MB-231; assay: cells; conditions: Homo sapiens, MDA-MB-231, 72 h, read-out: INH; remark: listed apart in the source
Description: Antitumor activity against human MDA-MB-231 cells assessed as inhibition of cell viability at 100 nM measured after 72 hrs by CCK-8 assay

SMILES	inhibition at 20 µM [1]	solubility kinetic [2]	inhibition at 1 µM [3]	IC50 [4]	Kd [5]	inhibition in vivo at 10 mg/kg [6]	inhibition at 0.1 µM [7]
CCn1c(=O)c2cc(C(N)=O)c(N)nc2n(C2CC2)c1=O	4.67%						
Cc1ccc(-n2nc(C(=O)Nc3ccc(CN4CCOCC4)cc3)c(=O)n(Cc3ccccc3)c2=O)cc1C	52.8%	15 µM (≈ 7.88 µg/mL)					
COc1cccc(Cn2c(=O)c(C#N)nn(-c3ccc(C)c(C)c3)c2=O)c1	97.4%	103 µM (≈ 37.3 µg/mL)	48.9%				
Cc1ccc(-n2nc(C#N)c(=O)n(Cc3ccncc3)c2=O)cc1C	0.27%						
Cc1ccc(-n2nc(C(=O)N3CCC[C@@H](CNC(=O)OC(C)(C)C)C3)c(=O)n(Cc3cccc(F)c3)c2=O)cc1C	99.3%	57 µM (≈ 32.2 µg/mL)	92.1%	232 nM			
Cc1ccc(-n2nc(C#N)c(=O)n(Cc3ccccc3F)c2=O)cc1C	93.5%		-3.59%				
Cc1ccc(-n2nc(C#N)c(=O)n(Cc3cccc(C(F)(F)F)c3)c2=O)cc1C	92.9%	67 µM (≈ 26.8 µg/mL)	19.3%				
Cc1ccc(-n2nc(C(=O)N3CCC(C(=O)OC(C)(C)C)CC3)c(=O)n(Cc3cccc(F)c3)c2=O)cc1C	90.4%	19 µM (≈ 10.2 µg/mL)	90.7%	279 nM			
Cc1ccc(-n2nc(C#N)c(=O)n(Cc3cccnc3)c2=O)cc1C	34.8%	106 µM (≈ 35.3 µg/mL)					
Cc1ccc(-n2nc(C(=O)N3CCCC(CNC(=O)OC(C)(C)C)C3)c(=O)n(Cc3cccc(F)c3)c2=O)cc1C (stereo not drawn)	96%	44 µM (≈ 24.9 µg/mL)	91.2%	102 nM	436 nM		
Cc1ccc(-n2nc(C(=O)N3CCC[C@H](CNC(=O)OC(C)(C)C)C3)c(=O)n(Cc3cccc(F)c3)c2=O)cc1C	99.9%	24 µM (≈ 13.6 µg/mL)	92.2%	261 nM			
Cc1ccc(-n2nc(C(=O)N3CCNCC3)c(=O)n(Cc3ccccc3)c2=O)cc1C	96.7%			> 1000 nM			
Cc1ccc(-n2nc(C(=O)N3CCCCC3)c(=O)n(Cc3ccccc3F)c2=O)cc1C	99.2%	20 µM (≈ 8.73 µg/mL)	93.5%	94.1 nM			
Cc1ccc(-n2nc(C(=O)N3CCC[C@@H](NC(=O)OC(C)(C)C)C3)c(=O)n(Cc3cccc(F)c3)c2=O)cc1C	98.3%	129 µM (≈ 71.2 µg/mL)	74.1%	478 nM			
Cc1ccc(-n2nc(C(=O)N3CCCCC3)c(=O)n(Cc3ccc(F)cc3)c2=O)cc1C	94.1%	96 µM (≈ 41.9 µg/mL)	63.8%	771 nM			
Cc1ccc(-n2nc(C(=O)N3CCOCC3)c(=O)n(Cc3ccccc3)c2=O)cc1C	95.8%	44 µM (≈ 18.5 µg/mL)	70.1%	659 nM			
O=C(/C=C/c1cccc(C(F)(F)F)c1)c1cc2ccccc2oc1=O				~1000 nM			
Cc1ccc(-n2nc(C(=O)NCCN3CCOCC3)c(=O)n(Cc3ccccc3)c2=O)cc1C	60.9%						
Cc1ccc(-n2nc(C#N)c(=O)n(Cc3ccccc3)c2=O)cc1C	96.4%		58.1%				
Cc1ccc(-n2nc(C(=O)N3CCCN(C(=O)OC(C)(C)C)C3)c(=O)n(Cc3cccc(F)c3)c2=O)cc1C	96%	54 µM (≈ 29 µg/mL)	39.9%				
Cc1ccc(-n2nc(C(=O)N3CCC(F)(F)CC3)c(=O)n(Cc3cccc(F)c3)c2=O)cc1C	84.3%		58.6%				
CC#CCn1c(=O)c(C#N)nn(-c2ccc(C)c(C)c2)c1=O	85.5%	71 µM (≈ 20.9 µg/mL)					
Cc1ccc(-n2nc(C(=O)N3CCCNCC3)c(=O)n(Cc3ccccc3)c2=O)cc1C	53.6%						
Cc1ccc(-n2nc(C#N)c(=O)n(Cc3ccccn3)c2=O)cc1C	-4.94%						
Cc1ccc(-n2nc(C(=O)N3CCN(C(=O)OC(C)(C)C)CC3)c(=O)n(Cc3cccc(F)c3)c2=O)cc1C	95%						
Cc1ccc(-n2nc(C(=O)N3CCCC3)c(=O)n(Cc3ccccc3)c2=O)cc1C	95.4%	30 µM (≈ 12.1 µg/mL)	83.4%	288 nM			

SMILES	inhibition at 20 µM [1]	solubility kinetic [2]	inhibition at 1 µM [3]	IC50 [4]	Kd [5]	inhibition in vivo at 10 mg/kg [6]	inhibition at 0.1 µM [7]
Cc1ccc(-n2nc(C(=O)N3CCC3)c(=O)n(Cc3ccccc3)c2=O)cc1C	98.7%		17.7%				
Cc1ccc(-n2nc(C#N)c(=O)n(Cc3ccc(F)cc3)c2=O)cc1C	93.6%		-1.93%				
Cc1ccc(-n2nc(C(=O)NC3CCN(Cc4ccccc4)CC3)c(=O)n(Cc3ccccc3)c2=O)cc1C	74.9%						
Cc1ccc(-n2nc(C(=O)N3CCN(c4ccccc4)CC3)c(=O)n(Cc3ccccc3)c2=O)cc1C	79%						
Cc1ccc(-n2nc(C(=O)N3CCCCC3)c(=O)n(Cc3cccc(F)c3)c2=O)cc1C	99.6%	17 µM (≈ 7.42 µg/mL)	93.3%	168 nM			
Cc1ccc(-n2nc(C#N)c(=O)n(Cc3cccc(F)c3)c2=O)cc1C	91.1%	15 µM (≈ 5.26 µg/mL)	23.2%				
Cc1ccc(-n2nc(C(=O)N3CCN(C(=O)C4CC4)CC3)c(=O)n(Cc3cccc(F)c3)c2=O)cc1C	22.2%						
Cc1ccc(-n2nc(C(=O)N3CCC(F)(F)CC3)c(=O)n(Cc3ccccc3)c2=O)cc1C	96.8%	36 µM (≈ 16.4 µg/mL)	61.5%	484 nM			
COc1ccccc1CNC(=O)c1nn(-c2ccc(C)c(C)c2)c(=O)n(Cc2ccccc2)c1=O	17.5%	25 µM (≈ 11.8 µg/mL)					
Cc1ccc(-n2nc(C(=O)N3CCCCCC3)c(=O)n(Cc3ccccc3)c2=O)cc1C	99.7%	62 µM (≈ 26.8 µg/mL)	96%	45.9 nM			
CCN1CCN(C(=O)c2nn(-c3ccc(C)c(C)c3)c(=O)n(Cc3ccccc3)c2=O)CC1	93.3%			> 1000 nM			
CCOC(=O)C1CCCN(C(=O)c2nn(-c3ccc(C)c(C)c3)c(=O)n(Cc3cccc(F)c3)c2=O)C1 (stereo not drawn)	98.4%	90 µM (≈ 45.8 µg/mL)	87.6%	131 nM			
Cc1ccc(-n2nc(C(=O)N(C)C)c(=O)n(Cc3ccccc3)c2=O)cc1C	89.8%	56 µM (≈ 21.2 µg/mL)	64%	867 nM			
Cc1ccc(-n2nc(C(=O)N3C4CCC3CN(C(=O)OC(C)(C)C)C4)c(=O)n(Cc3cccc(F)c3)c2=O)cc1C	14.5%	99 µM (≈ 55.8 µg/mL)					
Cc1ccc(-n2nc(C(=O)N3CCCN(C(=O)OC(C)(C)C)CC3)c(=O)n(Cc3cccc(F)c3)c2=O)cc1C	98.3%	41 µM (≈ 22.6 µg/mL)	71.1%	611 nM			
Cc1ccc(-n2nc(C(=O)N3CCC(F)CC3)c(=O)n(Cc3ccccc3)c2=O)cc1C	99.3%	57 µM (≈ 24.9 µg/mL)	89.5%	132 nM			
Cc1ccc(-n2nc(C(=O)N3CC(N(C)C(=O)OC(C)(C)C)C3)c(=O)n(Cc3cccc(F)c3)c2=O)cc1C	98.5%						
Cc1ccc(-n2nc(C(=O)N3CCC[C@H](NC(=O)OC(C)(C)C)C3)c(=O)n(Cc3cccc(F)c3)c2=O)cc1C	98%		8.56%				
CCOC(=O)N1CCN(C(=O)c2nn(-c3ccc(C)c(C)c3)c(=O)n(Cc3cccc(F)c3)c2=O)CC1	95.5%						
Cc1ccc(-n2nc(C(=O)N3CCN(C(=O)N(C)C)CC3)c(=O)n(Cc3cccc(F)c3)c2=O)cc1C	12.8%						
Cc1ccc(-n2nc(C(=O)N3CC(NC(=O)OC(C)(C)C)C3)c(=O)n(Cc3cccc(F)c3)c2=O)cc1C	73%						
Cc1ccc(-n2nc(C(=O)N3CCCN(C)CC3)c(=O)n(Cc3ccccc3)c2=O)cc1C	97.2%			> 1000 nM			
Cc1ccc(-n2nc(C(=O)N3CC3)c(=O)n(Cc3ccccc3)c2=O)cc1C	72.7%	47 µM (≈ 17.7 µg/mL)					
Cc1ccc(-n2nc(C(=O)NCc3ccccn3)c(=O)n(Cc3ccccc3)c2=O)cc1C	71.2%						
Cc1ccc(-n2nc(C(=O)NCCN(C)C)c(=O)n(Cc3ccccc3)c2=O)cc1C	97.7%			> 1000 nM			
CC(=O)O[C@H]1C(=O)[C@@]2(C)[C@H]([C@H](OC(=O)c3ccccc3)[C@]3(O)C[C@H](OC(=O)[C@H](O)[C@@H](NC(=O)c4ccccc4)c4ccccc4)C(C)=C1C3(C)C)[C@]1(OC(C)=O)CO[C@@H]1C[C@@H]2O [PACLITAXEL]			88.9%	38.3 nM		52.7%	82.4%
